# Experimental data reported in ChEMBL document CHEMBL1129142, “Synthesis of azido derivatives of semotiadil, a novel 1,4-benzothiazine calcium antagonist, for photoaffinity probes of calcium channels” (Bioorg Med Chem Lett, 1996).
# Assays:
# [1] = [Ca2+] antagonistic activity was measured with isolated depolarized guinea pig taenia cecum.; assay type: functional, tissue-based, Cavia porcellus, Caecum
# [2] = Displacement of [3H]semotiadil from L-type calcium channel of rabbit skeletal muscle; assay type: tissue-based, Oryctolagus cuniculus, Muscle tissue
# [3] = [Ca2+] antagonistic activity was measured with isolated depolarized guinea pig taenia cecum.(test 1); assay type: functional, tissue-based, Cavia porcellus, Caecum
# [4] = [Ca2+] antagonistic activity was measured with isolated depolarized guinea pig taenia cecum.(test 2); assay type: functional, tissue-based, Cavia porcellus, Caecum
SMILES,IC50 [1],Ki [2],IC50 [3],IC50 [4]
COc1ccc(OCCCN(C)CCOc2cccc(N=[N+]=[N-])c2)c([C@H]2Sc3ccccc3N(C)C2=O)c1,654 nM,2670 nM,–,–
COc1ccc(OCCCN(C)CCOc2cccc(N=[N+]=[N-])c2)c(C2Sc3ccccc3N(C)C2=O)c1 (centres undefined),–,–,427 nM,1380 nM

# Second part, the molecule after the results:
IC50 [1],Ki [2],IC50 [3],IC50 [4],SMILES
275 nM,–,–,–,COc1ccc(OCCCN(C)CCOc2ccc3c(c2)OCO3)c([C@H]2Sc3ccccc3N(CCN=[N+]=[N-])C2=O)c1
537 nM,–,–,–,COc1ccc(OCCCN(C)CCOc2ccc3c(c2)OCO3)c([C@H]2Sc3ccccc3N(CCCCN=[N+]=[N-])C2=O)c1
–,121 nM,42.7 nM,54.5 nM,COc1ccc(OCCCN(C)CCOc2ccc3c(c2)OCO3)c([C@H]2Sc3ccccc3N(C)C2=O)c1 [SEMOTIADIL]
